Our source for the T/C values is PubChem BioAssay AID330 (DTP/NCI, 2004).

“And” between values parts separate entries of the source, which are not always exact repeats. Equal values may be shown once. Inconclusive results and toxic doses are left out.

The test system of this experiment is P388 leukemia ip, CD2F1 mice, survival T/C. Put plainly: NCI In Vivo Anticancer Drug Screen. Data for tumor model P388 Leukemia (intraperitoneal) in CD2F1 (CDF1) mice. Particulars: endpoint: median survival time, higher = longer survival. In a few lines: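 Mice carrying the transplanted tumor received test compound or vehicle. Survival was recorded in each group, and the value is the treated-group measurement divided by that of the vehicle-treated control group.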

Setting [1] is: dose: 25.0 mg/kg/injection, schedule: Q01DX009 (ip), vehicle: saline with Tween-80.
Setting [2] is: dose: 50.0 mg/kg/injection, schedule: Q01DX009 (ip), vehicle: saline with Tween-80.
Setting [3] is: dose: 100.0 mg/kg/injection, schedule: Q01DX009 (ip), vehicle: saline with Tween-80.
Setting [4] is: dose: 50.0 mg/kg/injection, schedule: Q01DX009 (ip), vehicle: saline.
The mark [5] stands for this setting: dose: 100.0 mg/kg/injection, schedule: Q01DX009 (ip), vehicle: saline.
The mark [6] stands for this setting: dose: 200.0 mg/kg/injection, schedule: Q01DX009 (ip), vehicle: saline.
Where [7] appears, read: dose: 100.0 mg/kg/injection, schedule: Q04DX002 (ip), vehicle: saline with Tween-80.
Where [8] appears, read: dose: 25.0 mg/kg/injection, schedule: Q01DX009 (ip), vehicle: Klucel (hydroxypropylcellulose) (HPC).
[9] abbreviates: dose: 50.0 mg/kg/injection, schedule: Q01DX009 (ip), vehicle: Klucel (hydroxypropylcellulose) (HPC).
Where [10] appears, read: dose: 50.0 mg/kg/injection, schedule: Q01DX005 (ip), vehicle: saline with Tween-80.
[11] abbreviates: dose: 100.0 mg/kg/injection, schedule: Q01DX005 (ip), vehicle: saline with Tween-80.
The mark [12] stands for this setting: dose: 200.0 mg/kg/injection, schedule: Q01DX005 (ip), vehicle: saline with Tween-80.
[13] abbreviates: dose: 200.0 mg/kg/injection, schedule: Q01DX009 (ip), vehicle: saline with Tween-80.

Consider `CN(C)C(=N)N(C)C`, for which the T/C was 100 % of control under setting [1], 100 % of control under setting [2] and 95 % of control under setting [3].

Regarding `CC(C)(C)OC(=O)NC(Cc1ccc(OCc2ccccc2)cc1)C(=O)ON1C(=O)CCC1=O` (stereo unspecified), the T/C runs as follows: (dose: 50.0 mg/kg/injection, schedule: Q01DX005 (ip), vehicle: Klucel (hydroxypropylcellulose) (HPC)) 93 % of control; (dose: 100.0 mg/kg/injection, schedule: Q01DX005 (ip), vehicle: Klucel (hydroxypropylcellulose) (HPC)) 88 % of control; (dose: 200.0 mg/kg/injection, schedule: Q01DX005 (ip), vehicle: Klucel (hydroxypropylcellulose) (HPC)) 100 % of control.

For `CC1=CCCC(C)(C)C1/C=C(/C#N)C(=O)N=C(N)N` (stereo unspecified), the T/C under setting [4] was 99 % of control, the T/C under setting [5] was 97 % of control and the T/C under setting [6] is 99 % of control.

Take `CN(C)CCCC1(c2cccc(Cl)c2)SC(C)(C)c2ccccc21` (stereo unspecified): the T/C reads like this: (dose: 25.0 mg/kg/injection, schedule: Q01DX001 (ip), vehicle: saline) 97 % of control; (dose: 50.0 mg/kg/injection, schedule: Q01DX001 (ip), vehicle: saline) 93 % of control.

In the case of `C=Cn1c([N+](=O)[O-])cnc1/C=C/c1ccc(C(=O)OCCN2CCCCC2)cc1`, the T/C was 90 % of control under setting [7]; 105 % of control (dose: 100.0 mg/kg/injection, schedule: Q04DX003 (ip), vehicle: Klucel (hydroxypropylcellulose) (HPC)); 90 % of control (dose: 200.0 mg/kg/injection, schedule: Q04DX002 (ip), vehicle: saline with Tween-80); 102 % of control (dose: 200.0 mg/kg/injection, schedule: Q04DX003 (ip), vehicle: Klucel (hydroxypropylcellulose) (HPC)); 90 % of control (dose: 400.0 mg/kg/injection, schedule: Q04DX002 (ip), vehicle: saline with Tween-80); 102 % of control (dose: 400.0 mg/kg/injection, schedule: Q04DX003 (ip), vehicle: Klucel (hydroxypropylcellulose) (HPC)).

Regarding `NC(=S)c1ccc(C=NCc2ccccc2)cc1`, the T/C was 100 % of control (dose: 100.0 mg/kg/injection, schedule: Q04DX002 (ip), vehicle: Klucel (hydroxypropylcellulose) (HPC)); 100 % of control (dose: 200.0 mg/kg/injection, schedule: Q04DX002 (ip), vehicle: Klucel (hydroxypropylcellulose) (HPC)); 100 % of control (dose: 400.0 mg/kg/injection, schedule: Q04DX002 (ip), vehicle: Klucel (hydroxypropylcellulose) (HPC)).

Turning to `Cc1ccc(S(=O)(=O)N=N/C=C2/C=CC=CN2O)cc1`, the T/C was 118 % of control and 121 % of control under setting [8]; 119 % of control under setting [9]; 124 % of control (dose: 200.0 mg/kg/injection, schedule: Q01DX009 (ip), vehicle: Klucel (hydroxypropylcellulose) (HPC)).

For the compound `CN(C)c1ccc(C(=C2C=CC(=[N+](C)C)C=C2)c2cc(S(=O)(=O)O)cc3cc(S(=O)(=O)O)ccc23)cc1`, the T/C under setting [10] is 103 % of control, the T/C under setting [11] is 107 % of control and the T/C under setting [12] is 100 % of control.

On to `CC([NH-])C[NH-].[I][Pt+2][I]` (stereo unspecified), for which the T/C under setting [7] is 154 % of control and 151 % of control.

For the compound `COC(=O)C1(C(=O)OC)ON1C(C)C` (stereo unspecified), the T/C reads like this: (dose: 60.0 mg/kg/injection, schedule: Q01DX005 (ip), vehicle: saline) 98 % of control; (dose: 120.0 mg/kg/injection, schedule: Q01DX005 (ip), vehicle: saline) 94 % of control; (dose: 240.0 mg/kg/injection, schedule: Q01DX005 (ip), vehicle: saline) 116 % of control.

Take `O=C(OCCOc1ccc(C(F)(F)F)cc1[N+](=O)[O-])c1ccc(Cl)cc1Cl`: the T/C is, setting by setting: (dose: 15.0 mg/kg/injection, schedule: Q01DX005 (ip), vehicle: saline with Tween-80) 90 % of control; (dose: 30.0 mg/kg/injection, schedule: Q01DX005 (ip), vehicle: saline with Tween-80) 91 % of control; (dose: 60.0 mg/kg/injection, schedule: Q01DX005 (ip), vehicle: saline with Tween-80) 88 % of control.

As for `COc1ccc2nc(N/N=C(/c3ccccc3)c3ccccn3)cc(C)c2c1`, the T/C was 107 % of control under setting [10], 100 % of control under setting [11] and 100 % of control under setting [12].

As for `CC(C)CC(NC(=O)C(Cc1ccccc1)NC(=O)CNC(=O)C(C)NC(=O)C(N)Cc1ccc(O)cc1)C(=O)O` (stereo unspecified), the T/C was 93 % of control under setting [10], 109 % of control under setting [11] and 91 % of control under setting [12].

On to `On1cnc(=S)c2[nH]cnc21`, for which the T/C is 90 % of control under setting [3]; 100 % of control (dose: 100.0 mg/kg/injection, schedule: Q04DX003 (ip), vehicle: saline sonified); 100 % of control under setting [13]; 100 % of control (dose: 200.0 mg/kg/injection, schedule: Q04DX003 (ip), vehicle: saline sonified); 109 % of control (dose: 400.0 mg/kg/injection, schedule: Q01DX009 (ip), vehicle: saline with Tween-80); 90 % of control (dose: 400.0 mg/kg/injection, schedule: Q04DX003 (ip), vehicle: saline sonified).

In the case of `CCCCn1c(C)nc2c(N)cc(C(F)(F)F)cc21`, the T/C is 100 % of control and 92 % of control (dose: 3.12 mg/kg/injection, schedule: Q01DX009 (ip), vehicle: Klucel (hydroxypropylcellulose) (HPC)); 105 % of control and 87 % of control (dose: 6.25 mg/kg/injection, schedule: Q01DX009 (ip), vehicle: Klucel (hydroxypropylcellulose) (HPC)); 121 % of control and 97 % of control (dose: 12.5 mg/kg/injection, schedule: Q01DX009 (ip), vehicle: Klucel (hydroxypropylcellulose) (HPC)); 111 % of control (dose: 25.0 mg/kg/injection, schedule: Q01DX001 (ip), vehicle: Klucel (hydroxypropylcellulose) (HPC)); 107 % of control and 89 % of control and 93 % of control under setting [8]; 115 % of control (dose: 50.0 mg/kg/injection, schedule: Q01DX001 (ip), vehicle: Klucel (hydroxypropylcellulose) (HPC)). Further, the T/C is, setting by setting: under setting [9], 101 % of control; (dose: 100.0 mg/kg/injection, schedule: Q01DX001 (ip), vehicle: Klucel (hydroxypropylcellulose) (HPC)) 115 % of control; (dose: 100.0 mg/kg/injection, schedule: Q01DX009 (ip), vehicle: Klucel (hydroxypropylcellulose) (HPC)) 105 % of control; (dose: 200.0 mg/kg/injection, schedule: Q01DX001 (ip), vehicle: Klucel (hydroxypropylcellulose) (HPC)) 114 % of control; (dose: 400.0 mg/kg/injection, schedule: Q01DX001 (ip), vehicle: Klucel (hydroxypropylcellulose) (HPC)) 118 % of control.

`CC(C)(C)OC(=O)NC(CCCCNC=O)C(=O)O` (stereo unspecified): the T/C by setting is: under setting [10], 95 % of control; under setting [11], 96 % of control; under setting [12], 104 % of control.

Turning to `COn1cc(C(=O)O)c(=O)c2c3sc(=O)n(C)c3ccc21`, the T/C by setting is: under setting [2], 101 % of control; under setting [3], 94 % of control; under setting [13], 99 % of control.

`CCCCCCCCCCCCCCCCCC[N+](C)(C)c1nc(Cl)nc(Cl)n1`: the T/C runs as follows: (dose: 25.0 mg/kg/injection, schedule: Q01DX009 (ip), vehicle: saline) 100 % of control; under setting [4], 91 % of control.

Consider `O=Cc1cccc[n+]1Cc1ccc2c(c1)OCO2`, for which the T/C is 100 % of control (dose: 25.0 mg/kg/injection, schedule: Q01DX009 (ip), vehicle: distilled water + Tween-80) and 100 % of control (dose: 50.0 mg/kg/injection, schedule: Q01DX009 (ip), vehicle: distilled water + Tween-80).

Consider `COc1ccc(/C=C(/C#N)c2ccc(Cl)cc2)cc1`, for which the T/C under setting [1] is 92 % of control, the T/C under setting [2] was 92 % of control, the T/C under setting [3] is 95 % of control and the T/C under setting [13] is 93 % of control.

For the compound `CC1CCCCC1OC(=O)Nc1ccccc1` (stereo unspecified), the T/C was 105 % of control under setting [4], 101 % of control under setting [5] and 100 % of control under setting [6].

For the compound `COC(=O)/C(C#N)=C/N(C)c1ccc([N+](=O)[O-])cc1`, the T/C is 100 % of control under setting [2], 104 % of control under setting [3] and 92 % of control under setting [13].
